{"source": "patent US11384071B2", "about": "“Inhibitors of mechanotransduction to treat pain and modulate touch perception” (Max-Delbrück-Centrum für Molekulare Medizin in der …, priority 2016, dated 2022)", "key": {"human STOML3": {"biological_target": "T1, human STOML3 (Homo sapiens, UniProt Q8TAV4)", "T1 construct": "expressed in transfected cells; host or cells: HEK293 (general statement on the BiFC assay)", "T1 sequence (Q8TAV4 whole entry)": "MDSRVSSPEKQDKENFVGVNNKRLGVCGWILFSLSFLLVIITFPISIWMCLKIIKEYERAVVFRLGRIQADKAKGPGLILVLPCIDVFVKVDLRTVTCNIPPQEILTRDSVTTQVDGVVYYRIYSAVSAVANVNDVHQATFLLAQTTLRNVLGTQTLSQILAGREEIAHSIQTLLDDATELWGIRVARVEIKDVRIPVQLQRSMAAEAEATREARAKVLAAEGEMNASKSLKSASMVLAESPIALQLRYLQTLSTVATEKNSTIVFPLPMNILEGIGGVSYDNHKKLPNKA", "assay": "BiFC assay of human STOML3 self-association", "format": "cell-based", "text": "(§1) In mammals STOML3 belongs to a family of five structurally conserved membrane proteins, including stomatin, STOML1, STOML2, and podocin^10,12-16, all of which self-associate via their stomatin-domain (FIG. 8a)^10. Self-association of stomatin-domain proteins can be monitored in HEK293 cells using Bimolecular Fluorescence Complementation (BiFC) whereby N- and C-terminal halves of the YFP molecule are tagged to the prey and bait protein STOML3^2,17 (FIG. 1a). Irreversible association of the YFP fragments produces fluorescence that increases linearly over time (FIG. 1b)."}, "stomatin": {"biological_target": "T2, stomatin (Mus musculus, UniProt P54116)", "T2 construct": "expressed in transfected cells; host or cells: HEK293 (general statement on the BiFC assay)", "T2 sequence (P54116 whole entry)": "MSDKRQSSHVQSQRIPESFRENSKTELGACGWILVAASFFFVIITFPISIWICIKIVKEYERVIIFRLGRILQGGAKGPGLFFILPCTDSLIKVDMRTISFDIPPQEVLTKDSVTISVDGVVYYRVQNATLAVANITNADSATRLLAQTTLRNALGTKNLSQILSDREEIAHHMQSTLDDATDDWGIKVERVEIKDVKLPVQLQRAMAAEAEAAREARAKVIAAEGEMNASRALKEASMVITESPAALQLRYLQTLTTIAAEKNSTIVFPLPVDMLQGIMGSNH", "assay": "BiFC assay of stomatin self-association", "format": "cell-based", "experimental": "(§2) FIG. 8: Effects of STOML3 modulating molecules on other Stomatin-domain proteins. (a) BiFC signal development observed when cells were transfected with Stomatin-VC/-VN, STOML1-VC/-VN, STOML2-VC/-VN, STOML3-VC/-VN or Podocin-VC/-VN expression constructs respectively. […] (b) OB-1 was tested at two different concentrations (2 μm and 20 μm) using the BiFC assay where wild type STOML3 was used as both bait and prey.\nas §1"}, "Podocin": {"biological_target": "T3, Podocin (Mus musculus, UniProt Q91X05)", "T3 construct": "expressed in transfected cells; host or cells: HEK293 (general statement on the BiFC assay)", "T3 sequence (Q91X05 whole entry)": "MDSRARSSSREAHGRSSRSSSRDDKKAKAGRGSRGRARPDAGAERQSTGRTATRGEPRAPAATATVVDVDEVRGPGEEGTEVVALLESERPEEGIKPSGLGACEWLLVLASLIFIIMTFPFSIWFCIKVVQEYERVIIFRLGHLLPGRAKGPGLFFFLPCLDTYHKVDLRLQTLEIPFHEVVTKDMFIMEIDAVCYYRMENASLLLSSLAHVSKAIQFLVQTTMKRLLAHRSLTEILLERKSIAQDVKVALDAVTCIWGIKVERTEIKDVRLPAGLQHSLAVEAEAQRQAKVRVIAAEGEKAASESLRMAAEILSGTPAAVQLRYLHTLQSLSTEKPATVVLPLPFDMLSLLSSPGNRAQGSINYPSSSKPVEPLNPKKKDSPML", "assay": "BiFC assay of podocin self-association", "format": "cell-based", "experimental": "as §2, §1"}, "ASIC3": {"test_system": "ASIC3", "assay": "pH-gated ASIC3 currents and stomatin modulation in CHO cells", "format": "cell-based", "experimental": "To test the effect of compounds on stomatin modulation of ASIC currents CHO cells were transfected with vectors encoding Stomatin and ASIC3, in a ratio of 4:1 using lipofectamine, as per manufacturer's instructions. Cells were incubated with 20 μM OB-1 for 3 hours in extracellular buffer (see above), and OB-1 was maintained in the media during electrophysiological experiments. ASIC3 channels were gated by applying solutions of pH6 and pH4, and both the transient and sustained peak current density was measured."}, "head-restrained mice": {"test_system": "head-restrained mice", "assay": "Tactile perception task for head-restrained mice", "format": "in vivo, mouse", "from_the_text": "Male C57B16/J mice were anaesthetized and a lightweight metal headholder was implanted to the skull using glue (Loctite 401, Henkel) and dental cement (Paladur®, Heraeus). Mice were habituated to the head-restraint and the behavioral setup over 1-2 days. Mouse licking and forepaw behavior was monitored with three custom-made capacitance sensors: a licking sensor, a rest sensor and a target sensor that provided an online monitor of paw or tongue contact. The rest sensor was a ball (diameter: 6 mm) mounted on a glass rod of 30 mm length, glued to a piezoelectric bender (PICMA® Multilayer Piezo Bender Actuator, Physik Instrumente). The piezo generated a 30 ms cosine tactile pulse via a piezo amplifier system (Sigmann Elektronik). A urethane foam buffer (Poron®, Rogers Cooperation) was placed between the piezo and the supporting platform to reduce ringing oscillations after the stimulus pulse. The stimulus amplitude was calibrated with a high-speed (300 Hz) camera (Dalsa Genie HM640). […] Mice were water restricted and given approximately 4×0.6 μl water rewards on condition of touching the target sensor within a defined latency from stimulus onset and licking the water dispenser. The target sensor moved to the start position at the start of a new trial and away from the mouse at the end of the trial. Inter-trial interval was randomized between 7 and 13 s. […]"}, "[1]": {"test_system": "mice with chronic constriction injury", "assay": "Chronic constriction injury (CCI) model, paw withdrawal thresholds to von Frey filaments", "format": "in vivo, mouse", "text": "In deeply anaesthetized mice using isoflurane delivered in 100% 02 (Univentor 410 Anaesthesia unit; Univentor, Malta), four loose silk (5/0; Catgut GmbH Markneukirchen) ligatures were placed around the sciatic nerve at the level of the right mid-thigh as described previously (Wetzel et al., 2007).\nMice were allowed to habituate to the testing apparatus (acrylic chambers 10×10 cm in size, suspended above a wired mesh grid) one hour prior to behavioral testing. Only once the subject was at rest and not moving, calibrated von-Frey hair monofilaments (Aesthesio® set of 20 monofilaments, Ugo Basil) were applied to the plantar surface of the hind paw in order to deliver target forces from 0.008 grams to 4 grams increasing in an approximately logarithmic scale. A single stimulus indicated by a slight bending of the filament lasted for two seconds unless the mouse withdrew its paw. In order to measure mechanosensitivity the up-and-down method described by Chaplan^13 was adapted as follows: Testing began with a filament delivering a target force of 0.4 g, but filaments were applied three times. A positive response was noted if the subject withdrew the paw to all three filament applications, so that the successively smaller filament was presented next. […] Paw withdrawal thresholds were calculated as median of 23 to 30 determined turning points of the particular force stimuli applied to the subject.\nDrug injections of OB-1 or DMSO alone were dissolved in Ringer's solution (in mM: 135 NaCl, 5 KCl, 5 HEPES, 1.8 CaCl2), 1 MgCl2) to make the OB-1 and vehicle solution. Injections were made 3 hours prior to behavioral testing, approximately 20 μl solution, 250 pmol per paw, was injected into the palm with a Hamilton syringe, gauge 33. During the injection procedure, the mouse was anaesthetized with isoflurane (1.5 to 2.5% in 02). The injection procedure lasted around 3 minutes after which the mouse was moved to the home cage for recovery before behavioral testing.\nWe next interrogated whether local application of OB-1 can ameliorate tactile-evoked pain behavior in neuropathic models. […] We decided to test this idea more directly by testing the effects of local OB-1 on the mechanical sensitivity of Stoml3^−/− mice with CCI. […] Off-target effects are an issue for any biologically active small molecule. We therefore tested the effects of 20 μM OB-1 in a commercially available in vitro pharmacology panel (www.cerep.fr) consisting of 79 receptors and ion channels."}, "diabetic mice (STZ)": {"test_system": "diabetic mice (STZ)", "assay": "Streptozotocin (STZ) painful diabetic neuropathy model, von Frey", "format": "in vivo, mouse", "method": "Eight week old C57Bl/6 mice were used for diabetes experiments. Diabetes was induced. Briefly, 6 consecutive intraperitoneal injections of streptozotocin (STZ, Sigma-Aldrich, #S0130) were given with 24 h intervals at 60 mg/Kg body weight in citrate buffer (0.05M, pH 4.5) to induce diabetes. Blood glucose was maintained between 400 and 500 mg/dL throughout the experimental period. Mechanical sensitivity was measured in regular intervals and only those mice showing increased sensitivity to von Frey filaments as compared with basal sensitivity were selected for testing the effects of OB-1.\nVon Frey filaments of increasing strength (0.07, 0.16, 0.4, 0.6, 1.0 and 1.4 g) are applied 5 times with at least 1 min interval to intraplantar surface of hind paws to test the mechanical sensitivity. […] Frequency of positive responses was recorded out of 5 stimuli and percent of withdrawal frequency was calculated. Threshold was calculated as the von Frey filament strength required to elicit 60% withdrawal frequency. Vehicle or OB-1 (approximately 20 μl solution, 250 pmol per paw) was injected subcutaneously into intraplantar surface of diabetic mice under mild isoflurane anesthesia and mechanical sensitivity was measured from both injected (ipsilateral) and non-injected (contralateral) paws at 4 and 24 h post-injection."}, "[2]": {"test_system": "cutaneous sensory afferents of the saphenous nerve", "assay": "Ex vivo skin-nerve preparation after local injection into the paw", "format": "in vivo, mouse", "settings": "recordings 24 h after treatment"}}}
{"molecule": "CCOC(=O)c1c(-c2ccccc2)oc2ccc(Oc3c([N+](=O)[O-])ncn3C)cc12", "note": "[OB-1, Ethyl 5-((1-methyl-4-nitro-1H-imidazol-5-yl)oxy)-2-phenylbenzofuran-3-carboxylate]", "values": [{"measurement": "self-association of the human STOML3 protein (BiFC)", "setting": "human STOML3", "value": "inhibited"}, {"measurement": "self-association of stomatin (BiFC)", "setting": "stomatin", "value": "effective inhibitor"}, {"measurement": "oligomerization of Podocin (BiFC)", "setting": "Podocin", "value": "does not affect"}, {"measurement": "ASIC3-mediated pH-evoked currents (transient and sustained)", "setting": "ASIC3; CHO cells expressing ASIC3, 20 μm", "value": "no effect"}, {"measurement": "negative modulation of ASIC3 mediated currents by mouse stomatin", "setting": "ASIC3; CHO cells, 20 μM, 3 hours", "value": "no detectable effect"}, {"measurement": "psychometric curve of tactile stimulus detection", "setting": "head-restrained mice; 11 nmol per paw into forepaw, stimulus strengths 125-275 μm", "value": "shifted to the right"}, {"measurement": "time for detection rates of threshold stimuli to return to pre-treatment levels", "setting": "head-restrained mice; after drug treatment", "value": "1 to 4", "unit": "days"}, {"measurement": "effect of a single dose after 24 h", "setting": "[1]; CCI", "value": "absent"}, {"measurement": "time of maximal effect after a single local injection", "setting": "[1]; CCI", "value": 3, "unit": "h"}, {"measurement": "established hypersensitivity", "setting": "[1]; CCI, applied to the contralateral paw", "value": "no reversal"}, {"measurement": "half-maximal effective dose (ED50)", "setting": "[1]; CCI, paw withdrawal threshold, local injection", "value": 4.42, "unit": "µM"}, {"measurement": "half-maximal effective dose (ED50)", "setting": "[1]; CCI, per paw", "value": "approximately 20 pmol"}, {"measurement": "paw withdrawal threshold", "setting": "[1]; Stoml3−/− mice with CCI, local treatment of neuropathic paws", "value": "no change"}, {"measurement": "mechanical hypersensitivity", "setting": "[1]; female mice with CCI, similar extent to males", "value": "reversed"}, {"measurement": "tactile-evoked pain or allodynia", "setting": "[1]; wild type mice, CCI 6-21 days after induction, intraplantar ipsilateral", "value": "complete reversal"}, {"measurement": "mechanical hypersensitivity", "setting": "diabetic mice (STZ); 250 pmol per paw, 4 h after treatment", "value": "substantially reversed"}, {"measurement": "mechanical hypersensitivity, mean 60% withdrawal threshold", "setting": "diabetic mice (STZ); 24 h after a single treatment", "value": "returned to pre-drug treatment levels"}, {"measurement": "mechanoreceptor silencing effect, reversibility", "setting": "[2]", "value": "completely reversible"}]}
